For test [1] the following is noted: lead binding; Quintanilla-Vega 1995, Smith 1998; read-out: dissociation constant (Kd) of high affinity lead-binding region; cited from earlier work.
The nature of test [2]: Solid phase assay for lead: protein on nitrocellulose with chromogenic dye. The note with it: combined results, various buffers, pH, salts and dyes. On the procedure: A solid phase assay for the detection of lead was also developed using one or more synthetically produced lead-binding proteins. Both TB4 and ACBP and the various mutants that have been generated from them can be used in this assay. The experiment is performed by binding the protein to a solid surface support, such as nitrocellulose paper, cotton, glass microfibers, or polystyrene beads using, for example, methods described herein. Then the sample to be tested, such as saliva or blood, is placed onto the surface and allowed to react with the protein. After washing with buffer, or example a neutral non-chelating buffer to remove any unreacted material, the sample is treated with a ligand that can detect a lead-leading binding protein complex, for example, a ligand that can cause a color chance upon detecting a lead-protein complex. Examples of such ligands include, sodium sulfide and sodium rhodizonic acid. Furthermore, the concentration of the lead in the sample being tested may be determined by the intensity of the spot produced upon binding of the dye. […]
As a control, the assay was tested using solutions containing several different buffers, pH conditions, and salts for reaction with the sodium sulfide and sodium rhodizonic acid dyes used. […] The pH was determined empirically for rhodizonic acid over a range of pH 4 to pH 8. […]

Consider one substance from patent publication US20050049201A1, “Detection and removal of lead using lead-binding proteins” (priority 2001, published 2005).

The term Kd denotes a measure of binding affinity in units of concentration.

Regarding “thymosin beta-4 (MSDKPDMAEIEKFDKSKLKKTETQEKNPLPSKETIEQEKQAGES; listed as Homo sapiens) [TB4]”, the Kd in test [1] was ~1 nM. In addition, the “performance of solid phase lead detection assay” value in test [2] was “works well under various conditions”.
